Test results published in patent publication US8148388B2, “2,4 (4,6) pyrimidine derivatives” (Janssen Pharmaceutica, N.V., priority 2004, dated 2012).

Experiments:
Format in all cases: biochemical
Lyn (h) = Lyn (h) (Homo sapiens, UniProt P07948); experiment: Lyn human kinase assay (glass-fiber filter); conditions: test concentration of 10^−6M; for inhibition at 1 µM: read-out: C10 score (inhibition of Lyn human)
Protocol: (§1) In the glass-fiber filter technology the activity of the kinase of interest is measured using an appropriate substrate that is incubated with the aforementioned kinase protein in the presence of (^33P) radiolabeled ATP. (^33P) Phosphorylation of the substrate is subsequently measured as radioactivity bound on a glass fiber-filter.
(§2) All kinases are pre-diluted to a 10× working concentration prior to addition into the assay. The composition of the dilution buffer for each kinase is detailed below.
(§3) In a final reaction volume of 25 Lyn (h) (5-10 mU) is incubated with 50 mM Tris pH 7.5, 0.1 mM EGTA, 0.1 mM Na3VO4, 0.1% O-mercaptoethanol, 0.1 mg/ml poly(Glu, Tyr) 4:1, 10 mM MgAcetate and [γ-^33P-ATP] (specific activity approx. 500 cpm/pmol, concentration as required). The reaction is initiated by the addition of the MgATP mix. After incubation for 40 minutes at room temperature, the reaction is stopped by the addition of 5 μl of a 3% phosphoric acid solution. 10 μl of the reaction is then spotted onto a Filtennat A and washed three times for 5 minutes in 75 mM phosphoric acid and once in methanol prior to drying and scintillation counting.

Fes (h) = Fes (h) (Homo sapiens, UniProt P07332); experiment: Fes human kinase assay (glass-fiber filter); conditions: test concentration of 10^−6M; for inhibition at 1 µM: read-out: C4 score (inhibition of Fes human)
Protocol: as §1, §2
as §3, with “25 μl, Fes” for “25 Lyn”, “with 8” for “with 50”, “mM MOPS” for “mM Tris”, “pH 7.0, 0.2” for “pH 7.5, 0.1”, “mM EDTA,” for “mM EGTA, 0.1 mM Na3VO4, 0.1% O-mercaptoethanol,”, “a Filtermat” for “a Filtennat”

Flt3 (h) = Flt3 (h) (Homo sapiens, UniProt P36888); experiment: Flt3 human kinase assay (glass-fiber filter); conditions: test concentration of 10^−6M; for inhibition at 1 µM: read-out: C6 score (inhibition of Flt3 human)
Outline: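 Human Flt3 (5-10 mU) with 50 μM peptide substrate in 8 mM MOPS pH 7.0, 0.2 mM EDTA, 10 mM Mg acetate and [γ-33P]ATP (concentration as required), 40 min at room temperature. Reaction stopped with phosphoric acid; substrate 33P incorporation counted on P30 glass-fiber filter.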

GSK3B (h) = GSK3B (h) (Homo sapiens, UniProt P49841); experiment: GSK3β human kinase assay (glass-fiber filter); conditions: test concentration of 10^−6M; for inhibition at 1 µM: read-out: C8 score (inhibition of GSK3β human)
Protocol: The in vitro inhibition of a panel of kinases was assessed using either the glass-fiber filter technology as described by Davies, S. P. et al., Biochem J. (2000), 351; p. 95-105.
as §1, §2
In a final reaction volume of 25 μl, GSK3B (h) (5-10 mU) is incubated with 8 mM MOPS pH 7.0, 0.2 mM EDTA, 20 μM […](p)EDEEE (phospho GS2 peptide), 10 mM MgAcetate and [γ-^33P-ATP] (specific activity approx. 500 cpm/pmol, concentration as required). The reaction is initiated by the addition of the MgATP mix. After incubation for 40 minutes at room temperature, the reaction is stopped by the addition of 5 μl of a 3% phosphoric acid solution. 10 μl of the reaction is then spotted onto a P30 filtermat and washed three times for 5 minutes in 50 mM phosphoric acid and once in methanol prior to drying and scintillation counting.

Lck (h) = Lck (h) (Homo sapiens, UniProt P06239); experiment: Lck human kinase assay (glass-fiber filter); conditions: test concentration of 10^−6M; for inhibition at 1 µM: read-out: C9 score (inhibition of Lck human)
Protocol: (§4) The in vitro inhibition of a panel of kinases was assessed using either the glass-fiber filter technology as described by Davies, S. P. et al., Biochem J. […] In the glass-fiber filter technology the activity of the kinase of interest is measured using an appropriate substrate that is incubated with the aforementioned kinase protein in the presence of (^33P) radiolabeled ATP. (^33P) Phosphorylation of the substrate is subsequently measured as radioactivity bound on a glass fiber-filter. All kinases are pre-diluted to a 10× working concentration prior to addition into the assay. The composition of the dilution buffer for each kinase is detailed below. [table] […] The reaction is initiated by the addition of the MgATP mix. […] 10 μl of the reaction is then spotted onto a P30 filtermat and washed three times for 5 minutes in 75 mM phosphoric acid and once in methanol prior to drying and scintillation counting.

Yes (h) = Yes (h) (Homo sapiens, UniProt P07947); experiment: Yes human kinase assay (glass-fiber filter); conditions: test concentration of 10^−6M; for inhibition at 1 µM: read-out: C11 score (inhibition of Yes human)
Outline: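 Yes (h) (5-10 mU) with 0.1 mg/ml poly(Glu, Tyr) 4:1 in 8 mM MOPS pH 7.0, 0.2 mM EDTA, 10 mM MgAcetate and [γ-^33P-ATP], 40 minutes at room temperature. Stopped with phosphoric acid; substrate-bound ^33P counted on glass-fiber filter by scintillation.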

EGFR (h) = EGFR (h) (Homo sapiens, UniProt P00533); experiment: EGFR human kinase assay (glass-fiber filter); conditions: test concentration of 10^−6M; for inhibition at 1 µM: read-out: C4 score (inhibition of EGFR human)
Protocol: as §1, §2
In a final reaction volume of 25 μl, EGFR (h) (5-10 mU) is incubated with 8 mM MOPS pH 7.0, 0.2 mM EDTA, 10 mM MnCl2, 0.1 mg/ml poly(Glu, Tyr) 4:1, 10 mM MgAcetate and [γ-^33P-ATP] (specific activity approx. 500 cpm/pmol, concentration as required). The reaction is initiated by the addition of the MgATP mix. After incubation for 40 minutes at room temperature, the reaction is stopped by the addition of 5 μl of a 3% phosphoric acid solution. 10 μl of the reaction is then spotted onto a Filtermat A and washed three times for 5 minutes in 75 mM phosphoric acid and once in methanol prior to drying and scintillation counting.

Abl (h) = Abl (h) (Homo sapiens, UniProt P00519); experiment: Abl human kinase assay (glass-fiber filter); conditions: test concentration of 10^−6M; for inhibition at 1 µM: read-out: C1 score (inhibition of Abl human)
Protocol: as §1, §2
(specific activity approx. 500 cpm/pmol, concentration as required). The reaction is initiated by the addition of the MgATP mix. After incubation for 40 minutes at room temperature, the reaction is stopped by the addition of 5 μl of a 3% phosphoric acid solution. 10 μl of the reaction is then spotted onto a P30 filtermat and washed three times for 5 minutes in 75 mM phosphoric acid and once in methanol prior to drying and scintillation counting.

cSRC (h) = cSRC (h) (Homo sapiens, UniProt P12931); experiment: cSRC human kinase assay (glass-fiber filter); conditions: test concentration of 10^−6M; for inhibition at 1 µM: read-out: C3 score (inhibition of cSRC human)
Protocol: as §4, with “below.” for “below. [table]”

Fms (h) = Fms (h) (Homo sapiens, UniProt P07333); experiment: Fms human kinase assay (glass-fiber filter); conditions: test concentration of 10^−6M; read-out: C7 score (inhibition of Fms human)
Outline: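 Radiometric filter-binding assay: Fms (5-10 mU) with 250 μM peptide substrate and [γ-33P]ATP in 8 mM MOPS pH 7.0, 10 mM Mg acetate, 40 min at room temperature. Reaction stopped with phosphoric acid; substrate-bound 33P counted on P30 filtermat.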

CSK (h) = CSK (h) (Homo sapiens, UniProt P41240); experiment: CSK human kinase assay (glass-fiber filter); conditions: test concentration of 10^−6M; for inhibition at 1 µM: read-out: C2 score (inhibition of CSK human)
Protocol: as §1, §2
as §3, with “μl, CSK” for “Lyn”, “β-mercaptoethanol,” for “O-mercaptoethanol,”, “4:1, 10 mM MnCl2,” for “4:1,”, “Filtermat” for “Filtennat”

Sequence of Fes (h) (P07332 whole entry): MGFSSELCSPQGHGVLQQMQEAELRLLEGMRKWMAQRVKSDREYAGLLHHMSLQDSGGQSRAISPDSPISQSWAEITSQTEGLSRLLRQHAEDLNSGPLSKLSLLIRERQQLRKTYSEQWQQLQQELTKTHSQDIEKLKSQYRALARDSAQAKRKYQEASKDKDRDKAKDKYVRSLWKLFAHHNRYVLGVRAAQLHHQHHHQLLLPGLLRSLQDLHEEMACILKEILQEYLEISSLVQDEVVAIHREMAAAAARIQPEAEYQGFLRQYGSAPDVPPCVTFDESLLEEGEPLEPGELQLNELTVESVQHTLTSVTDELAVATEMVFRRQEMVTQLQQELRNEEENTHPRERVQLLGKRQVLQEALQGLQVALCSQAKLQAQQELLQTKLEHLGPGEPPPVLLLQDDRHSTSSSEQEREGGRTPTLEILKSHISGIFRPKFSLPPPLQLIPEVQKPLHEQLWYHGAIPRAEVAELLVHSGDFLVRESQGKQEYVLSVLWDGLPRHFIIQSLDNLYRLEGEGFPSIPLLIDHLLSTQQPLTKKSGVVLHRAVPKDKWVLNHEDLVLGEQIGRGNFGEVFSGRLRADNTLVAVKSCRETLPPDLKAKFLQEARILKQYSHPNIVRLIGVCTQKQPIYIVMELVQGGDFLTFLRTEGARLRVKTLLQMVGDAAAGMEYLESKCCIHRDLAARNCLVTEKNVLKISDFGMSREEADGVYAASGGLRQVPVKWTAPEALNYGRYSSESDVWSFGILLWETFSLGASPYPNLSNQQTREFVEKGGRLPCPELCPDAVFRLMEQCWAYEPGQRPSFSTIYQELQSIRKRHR
Sequence of Yes (h) (P07947 whole entry): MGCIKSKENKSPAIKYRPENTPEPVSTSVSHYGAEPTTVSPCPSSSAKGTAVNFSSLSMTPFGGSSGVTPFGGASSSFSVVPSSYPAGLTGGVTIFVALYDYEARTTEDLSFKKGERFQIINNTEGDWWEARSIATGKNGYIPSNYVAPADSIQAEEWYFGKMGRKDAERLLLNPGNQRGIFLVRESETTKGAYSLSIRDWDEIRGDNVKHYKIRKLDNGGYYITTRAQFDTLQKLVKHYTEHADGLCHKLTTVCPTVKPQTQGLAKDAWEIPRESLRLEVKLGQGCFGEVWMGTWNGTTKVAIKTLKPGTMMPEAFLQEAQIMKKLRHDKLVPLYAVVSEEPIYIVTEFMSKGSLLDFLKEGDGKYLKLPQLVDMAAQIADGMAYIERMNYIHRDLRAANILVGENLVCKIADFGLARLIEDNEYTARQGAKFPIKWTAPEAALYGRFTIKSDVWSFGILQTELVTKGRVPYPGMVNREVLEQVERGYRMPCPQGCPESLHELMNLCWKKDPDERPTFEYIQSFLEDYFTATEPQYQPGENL
Sequence of Lck (h) (P06239 whole entry): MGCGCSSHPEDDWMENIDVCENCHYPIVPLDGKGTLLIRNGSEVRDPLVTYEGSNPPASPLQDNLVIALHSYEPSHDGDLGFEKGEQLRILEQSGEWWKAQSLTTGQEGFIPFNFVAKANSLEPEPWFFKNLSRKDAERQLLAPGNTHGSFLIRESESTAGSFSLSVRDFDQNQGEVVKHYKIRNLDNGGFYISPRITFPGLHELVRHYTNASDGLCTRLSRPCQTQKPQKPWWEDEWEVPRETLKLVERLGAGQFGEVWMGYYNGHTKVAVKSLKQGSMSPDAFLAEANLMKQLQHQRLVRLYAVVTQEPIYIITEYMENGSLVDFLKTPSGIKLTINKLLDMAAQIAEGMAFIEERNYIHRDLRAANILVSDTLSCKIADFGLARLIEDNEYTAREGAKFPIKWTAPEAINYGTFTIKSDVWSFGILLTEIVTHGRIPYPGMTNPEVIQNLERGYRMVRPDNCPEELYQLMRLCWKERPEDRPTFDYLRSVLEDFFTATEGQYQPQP
Sequence of Flt3 (h) (P36888 27-993): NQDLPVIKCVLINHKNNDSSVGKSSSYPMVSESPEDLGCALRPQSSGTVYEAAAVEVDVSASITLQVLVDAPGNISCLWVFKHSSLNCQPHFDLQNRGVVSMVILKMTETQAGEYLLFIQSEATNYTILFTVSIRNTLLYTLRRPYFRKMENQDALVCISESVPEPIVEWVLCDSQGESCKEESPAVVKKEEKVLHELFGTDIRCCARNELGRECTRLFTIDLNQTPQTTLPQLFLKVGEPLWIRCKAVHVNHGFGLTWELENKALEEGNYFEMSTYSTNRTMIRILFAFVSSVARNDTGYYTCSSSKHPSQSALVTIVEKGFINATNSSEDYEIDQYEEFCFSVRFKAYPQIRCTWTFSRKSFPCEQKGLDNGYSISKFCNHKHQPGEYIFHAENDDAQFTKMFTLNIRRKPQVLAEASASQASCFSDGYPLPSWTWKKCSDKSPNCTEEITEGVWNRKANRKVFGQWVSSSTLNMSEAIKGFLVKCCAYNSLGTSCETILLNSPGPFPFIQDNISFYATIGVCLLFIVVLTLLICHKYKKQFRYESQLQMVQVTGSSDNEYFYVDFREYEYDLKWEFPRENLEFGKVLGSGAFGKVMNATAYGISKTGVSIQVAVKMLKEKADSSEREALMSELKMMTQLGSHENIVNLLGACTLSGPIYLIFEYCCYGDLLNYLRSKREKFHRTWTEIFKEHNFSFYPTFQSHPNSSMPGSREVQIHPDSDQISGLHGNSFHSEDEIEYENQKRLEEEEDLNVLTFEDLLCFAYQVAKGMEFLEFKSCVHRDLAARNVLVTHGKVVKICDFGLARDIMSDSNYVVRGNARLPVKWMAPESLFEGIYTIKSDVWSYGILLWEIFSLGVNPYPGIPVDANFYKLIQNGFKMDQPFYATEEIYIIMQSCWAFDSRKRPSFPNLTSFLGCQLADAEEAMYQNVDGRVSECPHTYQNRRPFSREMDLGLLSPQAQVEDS
Sequence of Lyn (h) (P07948 whole entry): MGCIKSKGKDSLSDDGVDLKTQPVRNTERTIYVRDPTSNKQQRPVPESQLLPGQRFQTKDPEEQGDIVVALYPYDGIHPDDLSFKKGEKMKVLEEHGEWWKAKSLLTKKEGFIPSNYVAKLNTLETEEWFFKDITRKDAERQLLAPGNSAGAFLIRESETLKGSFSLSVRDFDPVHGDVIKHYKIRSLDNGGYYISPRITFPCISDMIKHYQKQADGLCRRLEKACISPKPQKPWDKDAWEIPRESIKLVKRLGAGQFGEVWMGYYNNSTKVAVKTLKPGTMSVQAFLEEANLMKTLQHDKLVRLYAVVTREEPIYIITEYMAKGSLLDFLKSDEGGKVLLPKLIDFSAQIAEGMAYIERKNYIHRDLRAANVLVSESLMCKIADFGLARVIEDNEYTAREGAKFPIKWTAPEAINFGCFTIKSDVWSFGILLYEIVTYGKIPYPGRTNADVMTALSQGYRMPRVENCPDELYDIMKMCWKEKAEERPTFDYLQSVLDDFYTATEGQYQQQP
Sequence of Abl (h) (P00519 whole entry): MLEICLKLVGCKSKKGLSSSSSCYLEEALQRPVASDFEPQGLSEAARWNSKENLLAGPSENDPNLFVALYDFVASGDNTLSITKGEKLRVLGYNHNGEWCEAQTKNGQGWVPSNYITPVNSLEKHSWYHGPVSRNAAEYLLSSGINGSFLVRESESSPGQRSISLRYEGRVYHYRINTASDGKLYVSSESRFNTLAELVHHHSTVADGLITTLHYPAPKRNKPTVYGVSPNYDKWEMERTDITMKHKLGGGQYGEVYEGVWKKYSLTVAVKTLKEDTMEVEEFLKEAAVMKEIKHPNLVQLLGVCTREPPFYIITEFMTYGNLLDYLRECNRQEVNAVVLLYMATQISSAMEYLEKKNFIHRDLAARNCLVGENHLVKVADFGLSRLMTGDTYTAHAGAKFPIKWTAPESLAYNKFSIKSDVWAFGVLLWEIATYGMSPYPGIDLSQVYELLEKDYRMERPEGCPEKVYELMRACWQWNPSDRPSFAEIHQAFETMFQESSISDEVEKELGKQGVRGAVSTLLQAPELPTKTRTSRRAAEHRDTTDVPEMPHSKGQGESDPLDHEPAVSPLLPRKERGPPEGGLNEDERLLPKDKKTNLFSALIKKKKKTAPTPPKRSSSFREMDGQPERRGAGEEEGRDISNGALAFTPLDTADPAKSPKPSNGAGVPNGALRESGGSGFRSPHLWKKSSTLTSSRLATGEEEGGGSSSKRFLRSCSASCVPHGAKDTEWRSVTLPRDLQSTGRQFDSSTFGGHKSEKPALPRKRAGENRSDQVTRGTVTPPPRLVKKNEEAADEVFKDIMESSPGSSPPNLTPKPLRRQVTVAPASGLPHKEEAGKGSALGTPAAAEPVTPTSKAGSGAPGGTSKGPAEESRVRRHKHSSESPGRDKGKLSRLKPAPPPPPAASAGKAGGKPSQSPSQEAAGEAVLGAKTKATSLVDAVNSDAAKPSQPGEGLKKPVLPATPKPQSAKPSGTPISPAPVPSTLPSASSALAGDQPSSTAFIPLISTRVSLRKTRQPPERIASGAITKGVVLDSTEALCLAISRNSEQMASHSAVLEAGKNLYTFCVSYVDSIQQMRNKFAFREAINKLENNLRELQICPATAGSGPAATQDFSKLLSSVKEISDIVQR
Sequence of GSK3B (h) (P49841 whole entry): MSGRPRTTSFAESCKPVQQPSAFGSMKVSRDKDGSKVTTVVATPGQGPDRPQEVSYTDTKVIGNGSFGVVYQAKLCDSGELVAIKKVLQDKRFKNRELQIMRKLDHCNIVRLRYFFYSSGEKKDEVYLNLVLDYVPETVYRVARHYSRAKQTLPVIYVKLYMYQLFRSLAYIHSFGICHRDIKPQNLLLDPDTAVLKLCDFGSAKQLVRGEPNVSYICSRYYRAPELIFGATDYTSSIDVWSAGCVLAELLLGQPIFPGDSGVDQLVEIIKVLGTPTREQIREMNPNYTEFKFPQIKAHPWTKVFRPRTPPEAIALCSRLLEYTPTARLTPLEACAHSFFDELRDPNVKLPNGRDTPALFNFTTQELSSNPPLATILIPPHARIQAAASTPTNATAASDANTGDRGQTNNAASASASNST

inhibition at 1 µM (Fes (h))	inhibition at 1 µM (Fms (h))	inhibition at 1 µM (Flt3 (h))	inhibition at 1 µM (GSK3B (h))	inhibition at 1 µM (Yes (h))	inhibition at 1 µM (EGFR (h))	inhibition at 1 µM (Abl (h))	inhibition at 1 µM (cSRC (h))	inhibition at 1 µM (Lyn (h))	inhibition at 1 µM (CSK (h))	inhibition at 1 µM (Lck (h))	Compound	C10 score (inhibition of Lyn human) (Lyn (h))	C4 score (inhibition of Fes human) (Fes (h))	C9 score (inhibition of Lck human) (Lck (h))	C11 score (inhibition of Yes human) (Yes (h))	C4 score (inhibition of EGFR human) (EGFR (h))	C1 score (inhibition of Abl human) (Abl (h))	C3 score (inhibition of cSRC human) (cSRC (h))	other results
											1H,7H-12,8-metheno-6,2-nitrilo-13,1,5,7,17,20-benzoxapentaazacyclotricosine-3-carbonitrile, 24-chloro-14,15,16,17,18,19,20,21-octahydro-11-methoxy-20-methyl-18-oxo- [Compound 33]	4 (Score 4=>80% inhibition)	2 (Score 2=30-60% inhibition)	3 (Score 3=60-80% inhibition)	4 (Score 4=>80% inhibition)	3 (Score 3=60-80% inhibition)	3 (Score 3=60-80% inhibition)	4 (Score 4=>80% inhibition)	C6 score (inhibition of Flt3 human) (Flt3 (h)): 4 (Score 4=>80% inhibition); C8 score (inhibition of GSK3β human) (GSK3B (h)): 2 (Score 2=30-60% inhibition)
10 to 30%	10 to 30%	30 to 60%	60 to 80%	10 to 30%	10 to 30%	10 to 30%	10 to 30%				N#Cc1cnc2nc1Nc1cccc(c1)OCCNC(=O)c1cccc(c1)N2 [Compound 20, 14-oxa-2,4,8,17,25-pentaazatetracyclo[17.3.1.1~3,7~.1~9,13~]pentacosa-1(23),3,5,7(25),9,11,13(24),19,21-nonaene-6-carbonitrile, 18-oxo-]								
10 to 30%	10 to 30%	30 to 60%		10 to 30%		10 to 30%	10 to 30%	10 to 30%	10 to 30%	10 to 30%	O=C1NCCCCCOc2cccc(c2)Nc2ccnc(n2)Nc2cccc1c2 [Compound 22, 14-oxa-2,4,8,20,28-pentaazatetracyclo[20.3.1.1~3,7~.1~9,13~]octacosa-1(26),3,5,7(28),9,11,13(27),22,24-nonaen-21-one]								
10 to 30%	30 to 60%	60 to 80%	30 to 60%	10 to 30%	10 to 30%	10 to 30%		10 to 30%		30 to 60%	N#Cc1cnc2nc1Nc1cccc(c1)OCC(=O)NCCOc1cccc(c1)N2 [Compound 27, 14,20-dioxa-2,4,8,17,27-pentaazatetracyclo[19.3.1.1~3,7~.1~9,13~]heptacosa-1(25),3,5,7(27),9,11,13(26),21,23-nonaene-6-carbonitrile, 16-oxo-]								
	30 to 60%	10 to 30%						10 to 30%	60 to 80%		O=C1CCCCNC(=O)c2cccc(c2)Nc2cc(ncn2)Nc2cccc(c2)CN1 [Compound 58, 2,4,6,8,15,21-hexaazatetracyclo[21.3.1.1~3,7~.1~9,13~]nonacosa-1(27),3,5,7(29),9,11,13(28),23,25-nonaene-14,20-dione]								
											Cl.Cl.O=C1CNC(=O)Cc2ccc(Cl)cc2Nc2cc(ncn2)Nc2ccc(OCCCN3CCOCC3)c(c2)OCCN1 [Compound 107, 1H,7H-6,2:8,12-dimetheno-13,1,3,5,7,16,19-benzoxahexaazacyclotricosine-17,20(14H)-dione, 24-chloro-15,16,18,19,21-pentahydro-11-[3-(4-morpholinyl)propoxy]-, hydrochloric acid salt (1:2)]	4 (Score 4=>80% inhibition)	4 (Score 4=>80% inhibition)	4 (Score 4=>80% inhibition)	4 (Score 4=>80% inhibition)	4 (Score 4=>80% inhibition)	4 (Score 4=>80% inhibition)	4 (Score 4=>80% inhibition)	C2 score (inhibition of CSK human) (CSK (h)): 3 (Score 3=60-80% inhibition)
